Values of other authors, collected in patent US8173175B2, “Ethanolic and/or aqueous composition of an ammoniacal solution of alkaline metal salts of azide, mainly sodium and potassium” (priority 2005, dated 2012).

Assays:
grapevine buds = settings: Nir and Lavee 1993
catalase = settings: grapevine buds (Nir and Lavee 1993); for H2CN2 according to the manufacturer

Structure (SMILES) | effect on the budding (grapevine buds) | inhibition of catalase activity (catalase) | European Union toxicity classification (EU catalogue) | USEPA toxicity category (United States Environmental Protection Agency classification)
Nc1ncn[nH]1 [1,4-triazolamine] | does not have any effect on the budding | able of inhibit the catalase activity |  | 
N#CN [H2CN2, hydrogen cyanamide] |  | inhibition of the enzyme catalase | toxic, harmful compound in contact with the skin and eyes and skin irritant | category I (acute toxic)
